For 79 molecules, viability results are on record in publication PMC12040169 (PLOS Biology, 2025).

The nature of this data set: in vitro. The note with it: human, hela cells, % viability.

Usually viability stands for a read-out of living cells in per cent, often relative to untreated cells. `CC(=O)c1ccc(-c2cnc3[nH]c(=O)n([C@H](C)c4ccccc4)c3n2)s1` [CBK064375]: the viability at 28.5 h, 10 µM was 98.2%.
As to `CCNC(=O)c1ccc(-n2cccn2)c(C#Cc2cccnc2)c1` [CBK283150], the viability at 28.5 h, 10 µM turned out to be 105%.
For the molecule `Cc1nccn1CC1(O)CCN(Cc2c[nH]c3ccccc23)CC1` [CBK282671], the viability at 28.5 h, 10 µM turned out to be 82.1%.
On the same count and under the same terms, next, `CCCC(=O)N1CCC(C(=O)Nc2ccccc2F)CC1` [CBK304346]: 108%.
Still for that read-out and setting: in the case of `O=C1NC(=S)N/C1=C/c1cc2c(cc1Cl)OCO2` [CBK261818] it was 91.5%.
As for `Cc1ccccc1-n1nc(-c2ccc(NC(=O)c3ccccc3)cc2)cc1NC(=O)c1ccccc1` [CBK261264], the viability at 28.5 h, 10 µM turned out to be 82.2%.
For the molecule `O=C1c2ccc(Oc3ccc(Oc4ccc5c(c4)C(=O)N(c4cccnc4)C5=O)cc3)cc2C(=O)N1c1cccnc1` [CBK262195], the viability at 28.5 h, 10 µM came out at 95.7%.
With `CCOc1ccsc1C(=O)Nc1cc2ccccc2c(N2CCNCC2)n1` [CBK036341T], the viability at 28.5 h, 10 µM is 99.3%.
Still for that read-out and setting: next, `Cc1ccc2cc(CN(CCN(C)C)C(=S)Nc3ccccc3)c(=O)[nH]c2c1` [CBK134909]: 104%.
For the molecule `CCc1cc(CNC(=O)C(c2ccccc2)N2CCC(C)CC2)on1` (stereo not shown) [CBK281592], the viability at 28.5 h, 10 µM stood at 92.4%.
In the case of `COc1ccc(OCCC(=O)O)cc1` [CBK057706], the viability at 28.5 h, 10 µM was found to be 86.2%.
The same measure, in the same setting: in the case of `C=CCn1c(SCC(=O)Nc2cc(Cl)ccc2O)nnc1-c1ccccc1O` [CBK269102] it was 100%; in that of `COc1ccc(C2CCN(Cc3cccnc3)CC2)cc1` [CBK283564], 96.1%.
On the same count and under the same terms, in the case of `COc1ccccc1-c1ccc(CC2(C(=O)NCCc3ccc(F)cc3)CCOCC2)cc1` [CBK286520] it was 94.4%; in that of `O=C(Nc1cccc(-c2cccc(F)c2)c1)c1ccccc1Cn1cncn1` [CBK285735], 87.4%; in that of `CN1CCN(c2ccc(NC(=O)c3cc4oc(-c5ccccc5)nc4c(=O)n3C)cc2)CC1` [CBK200425], 94.9%.
Still for that read-out and setting: in the case of `CN(C)CCNC(=O)c1cc(-c2ccc(Cl)cc2)on1` [CBK116711T] it was 89.7%; in that of `C=CCOCc1cc(O)n2nc(SC)c(C(N)=O)c2n1` [CBK008592], 94.6%; in that of `CC(C)Nc1nc2cc(Cl)c(Cl)cc2nc1OCCN(C)C` [CBK113419], 103%.
Take `CNc1nc(SCC(=O)Nc2ccc(Cl)c(Cl)c2)nc(N2CCOCC2)n1` [CBK269559]: the viability at 28.5 h, 10 µM worked out at 85.3%.
Still for that read-out and setting: in the case of `Cc1cc(NS(=O)(=O)c2ccc(NC(=O)C(c3ccccc3)c3ccccc3)cc2)no1` [CBK085112] it was 94%; in that of `Cc1ccc(NS(=O)(=O)c2cc(C(=O)O)ccc2Cl)cc1S(=O)(=O)N1CCOCC1` [CBK296954], 113%; in that of `CN(C)CCCNC(=O)c1ccc([N+](=O)[O-])o1` [CBK262118], 92.8%.
Same read-out and setting: next, `CCOc1ccc(S(=O)(=O)N(C)CC(=O)N2CCN(C)CC2)cc1Cl` [CBK269865]: 101%; `c1cncc(-c2ccc(N3CCN(CCN4CCCC4)CC3)nc2)c1` [CBK037661]: 108%; `Cn1c(/N=C(\C=N\c2cc(=O)n(C)c(=O)n2C)c2ccccc2)cc(=O)n(C)c1=O` [CBK303237]: 87.3%.
`Cc1cc(C(=O)COc2cccc(-n3cnnn3)c2)c(C)n1C(C)c1ccccc1` (stereo not shown) [CBK295643]: the viability at 28.5 h, 10 µM was determined as 70.2%.
The same measure, in the same setting: next, `COc1ncccc1-c1csc(C2CN3CCCC3CO2)n1` (stereo not shown) [CBK304110]: 83.5%.
The same measure, in the same setting: next, `O=C(O)CCCC(=O)NCc1cccnc1` [CBK261708]: 106%.
Same read-out and setting: next, `CCOC(=O)c1c(C)nc2ccccc2c1O` [CBK153666]: 110%.
For `CCc1nc2c(Oc3nc4ccccc4s3)cccn2c1N(C=O)Cc1ccc(OC)cc1` [CBK147819], the viability at 28.5 h, 10 µM is 107%.
On the same count and under the same terms, next, `O=C(CC(C(=O)O)N1CCOCC1)Nc1ccc(Cl)cc1` (stereo not shown) [CBK267086]: 105%.
For `O/N=C/Nc1nccc(-c2cc(Cl)sc2Cl)n1` [CBK005934], the viability at 28.5 h, 10 µM was determined as 87.5%.
For `COc1ccc(CCNC(=O)c2cccc(-c3ccc4c(c3)COC3(CCNCC3)O4)c2)cc1OC` [CBK110024], the viability at 28.5 h, 10 µM (bulk resorufin, single well) amounted to 116%.
For the molecule `CN1CCN(c2cccc(-c3ccc(CNC(=O)OC(C)(C)C)cc3)n2)CC1` [CBK037641], the viability at 28.5 h, 10 µM worked out at 95.2%.
On to `Clc1cc2nc(OC3CCCNC3)c(N3CCCC3)nc2cc1Cl` (stereo not shown) [CBK113454], for which the viability at 28.5 h, 10 µM worked out at 108%.
With `CC(Cc1cnccn1)NC(=O)Nc1cc(N2CCOCC2)ccc1Cl` (stereo not shown) [CBK306954], the viability at 28.5 h, 10 µM amounted to 111%.
The same measure, in the same setting: in the case of `Cc1ccccc1-c1cncc(C2CCN(C(=O)Cc3c[nH]c4ccccc34)CC2)n1` [CBK286148] it was 79.4%; in that of `CC(=O)N1C[C@@H]2CCCCN(CC(=O)NC3CC3)[C@@H]2C1` [CBK285508], 101%.
On the same count and under the same terms, next, `Cc1ccc(C(O)CN(C)Cc2c(C)nn(C)c2C)c(C)c1` (stereo not shown) [CBK282939]: 84.7%; `O=C(Cc1cccnc1)N1CCC(O)(c2cccc(F)c2)CC1` [CBK283537]: 95.9%; `CN(C)CCSc1cc(N2CCCC2)ncn1` [CBK105295]: 116%.
On to `Cc1ccc(Nc2ncc(C(=O)NCCCN3CCN(c4cccc(Cl)c4)CC3)c3ccccc23)cc1Cl` [CBK291251], for which the viability at 28.5 h, 10 µM amounted to 90.1%.
Still for that read-out and setting: next, `CN(C)CCN(C)c1cc(-c2ccc(F)c(Cl)c2)nc2ccnn12` [CBK037230]: 90.4%; `CC(=O)N1CCc2cc(C(O)CN3CCCC4CCCCC43)ccc21` (stereo not shown) [CBK282924]: 93.6%; `COC(=O)N1CCC(C(=O)NC(c2ccccc2)c2nc(OC)cc(OC)n2)CC1` (stereo not shown) [CBK059651]: 90.6%.
In the case of `CCCCOc1ccc(S(=O)(=O)n2ccc3cc(N4CCNCC4)ccc32)cc1` [CBK001315C], the viability at 28.5 h, 10 µM is 37.9%.
On the same count and under the same terms, next, `Cc1nn(CC(=O)N2CCCC(C)C2)c(=O)c2cc3occc3n12` (stereo not shown) [CBK283623]: 91.6%; `OC(Cn1ccc2ccccc21)Cn1c(Cc2ccccc2)nc2ccccc21` (stereo not shown) [CBK267954]: 97.7%.
For `Cc1cc2cc(NC(=O)CCc3c(C)n[nH]c3C)ccc2o1` [CBK283077], the viability at 28.5 h, 10 µM was found to be 84.2%.
With `CCOC(=O)CN(Cc1ccccc1)S(=O)(=O)c1ccc(C(C)C)cc1` [CBK043404], the viability at 28.5 h, 10 µM worked out at 103%.
On the same count and under the same terms, in the case of `O=C(Nc1ccc(Cc2ccc(O)c(NC(=O)c3ccccc3F)c2)cc1O)c1ccccc1F` [CBK265766] it was 85.4%; in that of `CCC(CN1CCCC1)NC(=O)Cc1c(C)[nH]c2ccc(F)cc12` (stereo not shown) [CBK282751], 76.4%; in that of `COc1cccc(CN(C)C2CCN(C)CC2)c1OC` [CBK261532], 97.7%.
For the molecule `Cc1nc(SCCO)c2c(=O)n(C)c(=O)n(CC(C)C)c2n1` [CBK306114], the viability at 28.5 h, 10 µM was 85.8%.
Same read-out and setting: next, `O=C(Nc1cccc2ccccc12)O[C@@H]1CO[C@H]2[C@@H]1OC[C@@H]2NC(=O)c1cccs1` [CBK289468]: 103%.
Same read-out and setting: next, `CCCNc1cncc(-c2cccc(F)c2)n1` [CBK065441]: 97.3%.
Turning to `COc1ccc(NC(=O)CS(=O)(=O)Cc2ccccc2)c([N+](=O)[O-])c1` [CBK266748], the viability at 28.5 h, 10 µM was 93.1%.
In the case of `CCC(Sc1nc(N)cc(=O)[nH]1)C(=O)Nc1ccc2ccccc2c1` (stereo not shown) [CBK265761], the viability at 28.5 h, 10 µM was 98.9%.
Same read-out and setting: next, `Cc1ccc(-c2c(C(=O)NNC(=S)NCc3ccco3)csc2C)cc1` [CBK266992]: 96.3%; `O=C(Oc1ccccc1)c1cc(Cl)cnc1Cl` [CBK090320]: 101%.
`O=C(CCn1ccc2ccc(F)cc21)NC[C@H]1CC[C@H](C(=O)O)CC1` [CBK286666]: the viability at 28.5 h, 10 µM was found to be 86.2%.
With `O=C(c1ccc2nccnc2c1)N1CCN(c2ccccc2)CC1` [CBK200209], the viability at 28.5 h, 10 µM was 92.9%.
In the case of `Cc1ccccc1COc1cccc(Cl)c1Cl` [CBK002607], the viability at 28.5 h, 10 µM amounted to 90.6%.
Regarding `CCOc1cc(/C=C2\S/C(=N/c3ccc(S(N)(=O)=O)cc3)NC2=O)c(Br)cc1O` [CBK265622], the viability at 28.5 h, 10 µM was found to be 95%.
Regarding `CC(C)N/C(=N/S(=O)(=O)c1ccccc1)c1ccccc1` [CBK262346], the viability at 28.5 h, 10 µM is 98.2%.
Same read-out and setting: next, `Cn1ccnc1C(NC(=O)N1CCOc2ccc(Cl)cc2C1)C1CC1` (stereo not shown) [CBK307212]: 91%.
The same measure, in the same setting: next, `COc1ccc(S(=O)(=O)N(C)CC(=O)Nc2ccccc2C(F)(F)F)cc1OC` [CBK266159]: 106%.
Same read-out and setting: in the case of `CC(=O)NC(c1ccccn1)C1CCN(Cc2cccc(F)c2)CC1` (stereo not shown) [CBK285461] it was 104%; in that of `CC(=O)NC1(c2ccccc2)CCN(CC(O)c2ccccc2)CC1` (stereo not shown) [CBK284819], 107%.
Turning to `Cc1cc(OCCC#N)cc(C)c1Cl` [CBK015872], the viability at 28.5 h, 10 µM is 98.2%.
As for `CCn1cc(C(=O)O)c(=O)c2cnc(N3CCN(C(=S)NC(=O)C4c5ccccc5Oc5ccccc54)CC3)nc21` [CBK267114], the viability at 28.5 h, 10 µM was 91.6%.
Still for that read-out and setting: next, `CC(CCN1CCN(C)CC1)c1ccccc1` (stereo not shown) [CBK261881]: 88.5%.
Take `Cc1ccsc1C(=O)N1CCC(n2cc(C(C)(C)O)nn2)CC1` [CBK307069]: the viability at 28.5 h, 10 µM worked out at 110%.
Same read-out and setting: next, `Cn1cc(CN2CCNC(=O)C2c2ccccc2C(F)(F)F)cn1` (stereo not shown) [CBK306407]: 90.4%; `Cc1nn(C)cc1CN(C)CC(=O)Nc1nc2c(s1)CC(C)CC2` (stereo not shown) [CBK306669]: 90.6%.
As to `CC(=O)Nc1ccc(-c2ccc3c(c2)COC2(CCN(C(=O)Cc4ccc(F)cc4F)CC2)O3)cc1` [CBK122474], the viability at 28.5 h, 10 µM (bulk resorufin, single well) was determined as 102%.
As for `Cc1cc(C(=O)N2CCC3(C/C=C/CCOc4ccccc4C(=O)NCCCNC3=O)CC2)no1` [CBK292155], the viability at 28.5 h, 10 µM is 92.6%.
For `COc1nccnc1OC1CCN(Cc2ccc(Cl)cc2)CC1` [CBK084240], the viability at 28.5 h, 10 µM was found to be 98.7%.
